Reference: patent US20230132366A9, “METHODS FOR TREATING DYSREGULATED LIPID METABOLISM” (DENALI THERAPEUTICS INC., priority 2018, published 2023)

System: Trem2 KO BMDMs
Experiment: In vitro lipid storage assay, Nile Red staining, BMDM treated with myelin
Assay type: cell-based, mouse
Protocol: Mouse femur and tibia bones were dissected and briefly sterilized with 70% ethanol. The bones were washed twice with HBSS, then cracked in 10 mL HBSS by mortar and pestle. The cell suspension was filtered through a 70 μm cell strainer, spun at 300×g for 5 min, and supernatant was discarded. The cell pellet was resuspended in ACK Lysing Buffer (Thermo Fisher A1049201) for 4 min at room temperature. 10 mL RPMI-1640 (Thermo Fisher)+10% Hyclone FBS (GE Healthcare)+ Penicillin-Streptomycin (Thermo Fisher) was added to stop ACK lysis, then spun 300×g 5 min, and supernatant was discarded. Cells were resuspended in RPMI culture media with 50 ng/mL murine M-CSF (Life Technologies, PMC2044), counted and diluted to 1×10^6 cells/mL, then plated on non-tissue culture treated petri dishes. Three days after seeding, fresh murine M-CSF (50 ng/mL) was added. Five days after seeding, cell culture media was aspirated and cells were washed once with PBS. Cells were resuspended in RPMI/FBS/Pen-Strep and harvested with a cell scraper. […]
For LC-MS, cells were extracted according to the protocol below. […] Lipid and filipin spots were analyzed using a spot-finding algorithm on the Harmony software supplied with the instrument. […] Cells were imaged at 63× resolution and Nile Red was quantified as total spot area (FIG. 5B) using a spot-finding algorithm on the Harmony software. […]

Compound | neutral lipid accumulation (Nile Red) (myelin debris 25 ug/mL 48 h, co-treatment 10 uM) | neutral lipid accumulation (Nile Red, total spot area) (myelin 25 ug/mL 24 h, then APOE3 10 ug/mL 24 h)
C=C(c1ccc(C(=O)O)cc1)c1cc2c(cc1C)C(C)(C)CCC2(C)C [bexarotene] | reduced | 
APOE3: recombinant human APOE3 added into the culture media |  | improved
